# According to PMC6112376, “Comprehensive Analyses and Prioritization of Tox21 10K Chemicals Affecting Mitochondrial Function by in-Depth Mechanistic Studies” (Environmental Health Perspectives, 2018):
# Where two headings read alike, the source gives them in different places.
# Columns and labels:
# [1] = system: mitochondrial respiratory chain complex I; assay type: biochemical, rat; conditions: at 100μM
# [2] = target: T1, mitochondrial respiratory chain complex II (Rattus norvegicus, UniProt P21913+Q641Z9+Q6PCT8+Q920L2); test: Respiratory chain complex II activity; assay type: biochemical; conditions: tested up to 100μM
# T1 construct: Submitochondrial particles were prepared by subjecting the intact rat mitochondria, isolated as described above, to three successive freeze–thaw cycles; from tissue; host or cells: rat liver mitochondria (submitochondrial particles)
# [3] = system: HeLa cells expressing YFP-Parkin; test: Parkin translocation assay; assay type: cell-based, human
# [4] = system: Caenorhabditis elegans (Bristol N2); test: C. elegans larval development and growth assay
# hNSC = test: MMP assay in human neural stem cells (hNSC); assay type: cell-based; conditions: Homo sapiens, Neural stem cell, 1 h, read-out: hNSC IC50 (MMP)
# [5] = system: Caenorhabditis elegans strain PE255; test: In vivo C. elegans ATP status assay
# HepG2 cells [6] = conditions: cited from earlier work
# HepG2 cells [7] = test: Intracellular ATP content (cell viability) assay; assay type: cell-based, human; conditions: Homo sapiens, HepG2, 40 h
# [8] = system: p53 (p53-bla HCT-116 cells); test: p53 β-lactamase reporter gene assay; assay type: cell-based, human; conditions: 16 h incubation; mean±SD of three experiments
# [9] = system: Caenorhabditis elegans (Bristol N2); conditions: Bristol N2 (wild type), Caenorhabditis elegans, in vivo
# [10] = system: isolated rat liver mitochondria; test: Oxygen consumption, Clark-type oxygen electrode; assay type: biochemical
# [11] = system: mitochondrial respiratory chain complex IV; assay type: biochemical, rat
# rat primary hepatocytes [12] = test: MMP assay in rat primary hepatocytes; conditions: Rattus norvegicus, Hepatocyte
# rat primary hepatocytes [13] = system: rat primary hepatocytes
# [14] = system: mitochondrial respiratory chain complex III; assay type: biochemical, rat
# [15] = system: mitochondrial respiratory chain complex V; assay type: biochemical, rat
# HepG2 cells [16] = test: cells; conditions: Homo sapiens
# [17] = system: Nrf2/ARE (ARE-bla HepG2 cells); test: ARE β-lactamase reporter gene assay; assay type: cell-based, human; conditions: 16 h incubation; mean±SD of three experiments
# HepG2 cells [18] = test: ROS-Glo hydrogen peroxide (ROS) assay; assay type: cell-based, human
# T1 sequence (Q920L2 35-656): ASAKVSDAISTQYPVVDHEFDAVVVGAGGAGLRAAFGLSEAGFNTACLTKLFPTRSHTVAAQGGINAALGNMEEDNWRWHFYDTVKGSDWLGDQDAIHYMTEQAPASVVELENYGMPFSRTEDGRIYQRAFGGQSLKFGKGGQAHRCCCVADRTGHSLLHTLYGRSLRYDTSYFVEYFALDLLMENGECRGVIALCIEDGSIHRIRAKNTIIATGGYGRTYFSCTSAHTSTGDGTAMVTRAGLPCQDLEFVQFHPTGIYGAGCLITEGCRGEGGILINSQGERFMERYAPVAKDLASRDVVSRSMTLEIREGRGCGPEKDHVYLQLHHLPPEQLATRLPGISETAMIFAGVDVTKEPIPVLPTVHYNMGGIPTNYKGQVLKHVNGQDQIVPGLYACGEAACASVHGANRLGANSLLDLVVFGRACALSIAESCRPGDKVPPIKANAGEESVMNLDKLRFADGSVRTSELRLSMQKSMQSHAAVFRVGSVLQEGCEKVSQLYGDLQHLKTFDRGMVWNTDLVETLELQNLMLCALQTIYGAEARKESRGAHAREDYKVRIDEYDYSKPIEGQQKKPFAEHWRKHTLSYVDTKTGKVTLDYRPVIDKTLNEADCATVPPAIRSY
# T1 sequence (P21913 31-282): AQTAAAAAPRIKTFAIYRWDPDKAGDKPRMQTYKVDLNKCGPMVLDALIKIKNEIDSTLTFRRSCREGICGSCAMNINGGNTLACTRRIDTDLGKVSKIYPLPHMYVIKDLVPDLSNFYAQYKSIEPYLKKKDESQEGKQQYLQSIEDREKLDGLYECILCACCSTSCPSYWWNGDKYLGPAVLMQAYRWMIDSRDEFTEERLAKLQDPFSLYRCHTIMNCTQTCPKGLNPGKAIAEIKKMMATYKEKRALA
# T1 sequence (Q641Z9 1-169): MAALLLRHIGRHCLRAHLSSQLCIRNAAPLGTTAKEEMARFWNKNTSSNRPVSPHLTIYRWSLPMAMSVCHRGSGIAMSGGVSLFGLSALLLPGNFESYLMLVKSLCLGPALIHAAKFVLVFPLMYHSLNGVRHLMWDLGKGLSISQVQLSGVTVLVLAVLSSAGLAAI
# T1 sequence (Q6PCT8 57-159): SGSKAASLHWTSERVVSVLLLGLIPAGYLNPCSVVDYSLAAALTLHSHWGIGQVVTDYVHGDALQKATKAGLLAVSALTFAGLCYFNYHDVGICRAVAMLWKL
smiles,measurement,setting,value
"CC[C@@H](C(=O)[C@@H](C)[C@@H](O)[C@H](C)CCc1ccc(C)c(O)c1C(=O)O)[C@H]1O[C@](CC)([C@H]2CC[C@](O)(CC)[C@H](C)O2)C[C@@H]1C [Lasalocid sodium, reference compound]",Complex I % inhibition,[1],18.3±6.97 at 100μM %
same,Complex II % inhibition (activity call),[2],Inactive
same,Parkin recruitment,[3],Inactive
same,EXT: mean difference in nematode size relative to plate controls,[4]; 0.5 µM,0.01876
same,EXT: mean difference in nematode size relative to plate controls,[4]; 1 µM,-0.05443
same,EXT: mean difference in nematode size relative to plate controls,[4]; 5 µM,0.2782
same,EXT: mean difference in nematode size relative to plate controls,[4]; 10 µM,0.2152
same,EXT: mean difference in nematode size relative to plate controls,[4]; 25 µM,0.9725
same,EXT: mean difference in nematode size relative to plate controls,[4]; 50 µM,1.753
same,EXT: mean difference in nematode size relative to plate controls,[4]; 75 µM,1.778
same,EXT: mean difference in nematode size relative to plate controls,[4]; 100 µM,1.712
same,effect on larval growth (in words),[4]; 0.5–100μM,inhibited
same,minimal effective concentration,"[4]; Caenorhabditis elegans, read-out: LEC EXT: lowest effect concentration for extinction, a measure of nematode size",5 µM
same,IC50,hNSC,540 nM
same,LUM: mean difference in luminescence (ATP content) relative to plate controls,[5]; 0.5 µM,-0.09691
same,LUM: mean difference in luminescence (ATP content) relative to plate controls,[5]; 1 µM,0.04489
same,LUM: mean difference in luminescence (ATP content) relative to plate controls,[5]; 5 µM,0.262
same,LUM: mean difference in luminescence (ATP content) relative to plate controls,[5]; 10 µM,0.184
same,LUM: mean difference in luminescence (ATP content) relative to plate controls,[5]; 25 µM,0.7982
same,LUM: mean difference in luminescence (ATP content) relative to plate controls,[5]; 50 µM,0.8669
same,LUM: mean difference in luminescence (ATP content) relative to plate controls,[5]; 75 µM,1.247
same,LUM: mean difference in luminescence (ATP content) relative to plate controls,[5]; 100 µM,1.4191
same,effect on ATP content (in words),[5]; 0.5–100μM,inhibited
same,minimal effective concentration,"[5]; Caenorhabditis elegans, read-out: LEC LUM: lowest effect concentration for luminescence, a measure of nematode ATP content",25 µM
same,MMP assays efficacy (%) qHTS-HepG2,HepG2 cells [6],-107±4%
same,IC50,"HepG2 cells [6]; read-out: MMP assays IC50 (µM), qHTS-HepG2",1.14 ± 0.07 µM
same,IC50,"HepG2 cells [7]; read-out: ATP (HepG2, galactose) IC50",35.4 µM
same,IC50,"HepG2 cells [7]; read-out: ATP (HepG2, glucose) IC50",30.7 µM
same,p53 (HCT-116) EC50,[8],Inactive
same,"LEC (lowest effect concentration), larval growth assay",[9],≤ 10 µM
same,Potential Mechanism,[10],Uncoupler + Inhibitor
same,"I-ADP, % of control (O2 consumption rate)",[10]; 0.032 µM,102 (33.0) % of control
same,"I-sub, % of control (O2 consumption rate)",[10]; 0.032 µM,114 (12.4) % of control
same,"II-ADP, % of control (O2 consumption rate)",[10]; 0.032 µM,87 (52.0) % of control
same,"II-sub, % of control (O2 consumption rate)",[10]; 0.032 µM,98 (20.1) % of control
same,"I-ADP, % of control (O2 consumption rate)",[10]; 0.16 µM,105 (34.0) % of control
same,"I-sub, % of control (O2 consumption rate)",[10]; 0.16 µM,118 (12.9) % of control
same,"II-ADP, % of control (O2 consumption rate)",[10]; 0.16 µM,72 (43.1) % of control
same,"II-sub, % of control (O2 consumption rate)",[10]; 0.16 µM,107 (22.1) % of control
same,"I-ADP, % of control (O2 consumption rate)",[10]; 0.8 µM,90 (29.2) % of control
same,"I-sub, % of control (O2 consumption rate)",[10]; 0.8 µM,120 (13.1) % of control
same,"II-ADP, % of control (O2 consumption rate)",[10]; 0.8 µM,57 (34.1) % of control
same,"II-sub, % of control (O2 consumption rate)",[10]; 0.8 µM,115 (23.6) % of control
same,"I-ADP, % of control (O2 consumption rate)",[10]; 4 µM,81 (26.3) % of control
same,"I-sub, % of control (O2 consumption rate)",[10]; 4 µM,164 (17.9) % of control
same,"II-ADP, % of control (O2 consumption rate)",[10]; 4 µM,60 (35.9) % of control
same,"II-sub, % of control (O2 consumption rate)",[10]; 4 µM,151 (31.2) % of control
same,"I-ADP, % of control (O2 consumption rate)",[10]; 20 µM,107 (34.7) % of control
same,"I-sub, % of control (O2 consumption rate)",[10]; 20 µM,347 (37.8) % of control
same,"II-ADP, % of control (O2 consumption rate)",[10]; 20 µM,48 (28.6) % of control
same,"II-sub, % of control (O2 consumption rate)",[10]; 20 µM,160 (33.0) % of control
same,"I-ADP, % of control (O2 consumption rate)",[10]; 100 µM,16 (8.1) % of control
same,"I-sub, % of control (O2 consumption rate)",[10]; 100 µM,32 (6.9) % of control
same,"II-ADP, % of control (O2 consumption rate)",[10]; 100 µM,20 (11.6) % of control
same,"II-sub, % of control (O2 consumption rate)",[10]; 100 µM,39 (13.7) % of control
same,Complex IV % inhibition (activity call),[11],Inactive
same,IC50,"rat primary hepatocytes [12]; 1 h, read-out: Rat hepatocytes IC50 (MMP)",1.27 µM
same,IC50,rat primary hepatocytes [12]; read-out: MMP assays IC50 (µM) Rat Hepatocytes,1.3 ± 0.29 µM
same,MMP assays efficacy (%) Rat Hepatocytes,rat primary hepatocytes [13],-105±1%
same,Rat hepatocytes (efficacy) (MMP),rat primary hepatocytes [13],1.27±0.23 ( −95.6±2.35 ) %
same,Complex III % inhibition (activity call),[14],Inactive
same,Complex V % inhibition (activity call),[15],Inactive
same,IC50,"HepG2 cells [16]; HepG2, 1 h, read-out: HepG2 IC50 Galactose (MMP)",1.58 µM
same,IC50,"HepG2 cells [16]; HepG2, 1 h, read-out: HepG2 IC50 Glucose (MMP)",1.54 µM
same,IC50,"HepG2 cells [16]; HepG2, read-out: MMP assays IC50 (µM) HepG2",1.38 µM
same,Emax,"HepG2 cells [16]; HepG2, read-out: MMP assays efficacy (%) HepG2",99%
same,ARE (HepG2) EC50,[17],Inactive
same,ROS (HepG2) EC50,HepG2 cells [18],Inactive
